Reference: BindingDB's records for doi:10.1021/acs.jmedchem.9b00881 (University of Auckland, 2020)

Tests used:
[1] = Inhibition of perforin (unknown origin) assessed as reduction in perforin-mediated cell lysis in human Jurkat T cells incubated for 30 mins by 51Cr release based gamma counting method
[2] = Inhibition of perforin in human KHYG-1 cells pre-treated with compound for 20 mins assessed as reduction in KHYG-1 cells-mediated cell lysis of human K562 cells measured after 4 hrs by 51Cr release based gamma counting method

IC50 [1] [µM]	IC50 [2] [µM]	SMILES
> 20	6.8	O=C1NCc2ncc(-c3ccc(-c4cncc(NS(=O)(=O)c5ccc(F)cc5F)c4)s3)cc21
5.73		O=C1NCc2cc(-c3ccc(-c4cncc(NS(=O)(=O)c5ccc(F)cc5F)c4)s3)cnc21
2.3	1.6	COc1ncc(-c2ccc(-c3cnc4c(c3)CN(C)C4=O)s2)cc1NS(=O)(=O)c1ccccc1[N+](=O)[O-]
> 20		O=C1c2ccc(-c3ccc(-c4cncc(NS(=O)(=O)c5ccc(F)cc5F)c4)s3)cc2CN1CCN1CCCC1
0.78	2.21	COc1ncc(-c2ccc(-c3cnc4c(c3)CN(C)C4=O)s2)cc1NS(=O)(=O)c1ccccc1C(F)(F)F
14.2		O=C1c2ccc(-c3ccc(-c4cncc(NS(=O)(=O)c5ccc(F)cc5F)c4)s3)cc2CN1CC(O)CO (configuration not stated)
4.3	7.5	CN1Cc2cc(-c3ccc(-c4cncc(NS(=O)(=O)c5ccc(F)cc5F)c4)s3)cnc2C1=O
3.34	4.43	COc1ncc(-c2ccc(-c3cnc4c(c3)CN(C)C4=O)s2)cc1NS(=O)(=O)c1ccc(F)cc1F
> 20		CN(C)CCN1Cc2cc(-c3ccc(-c4cncc(NS(=O)(=O)c5ccc(F)cc5F)c4)s3)ccc2C1=O
17		O=C1c2ccc(-c3ccc(-c4cncc(NS(=O)(=O)c5ccc(F)cc5F)c4)s3)cc2CN1CCN1CCOCC1
1.38	3.3	CN1Cc2cc(-c3ccc(-c4cncc(NS(=O)(=O)c5ccccc5C(F)(F)F)c4)s3)cnc2C1=O
> 20	3.4	CN1Cc2cc(-c3ccc(-c4cncc(NS(=O)(=O)c5cccc(C(F)(F)F)c5)c4)s3)cnc2C1=O
> 20		CN1CCN(CCN2Cc3cc(-c4ccc(-c5cncc(NS(=O)(=O)c6ccc(F)cc6F)c5)s4)ccc3C2=O)CC1
> 20		O=C1c2ccc(-c3ccc(-c4cncc(NS(=O)(=O)c5ccc(F)cc5F)c4)s3)cc2CN1CCN1CCCCC1
> 20		O=C1c2ccc(-c3ccc(-c4cncc(NS(=O)(=O)c5ccc(F)cc5F)c4)s3)cc2CN1CCCO
